Here are results for ten compounds from US8299252B2, “Pyrazolopyridine and pyrrolopyridine multikinase inhibitors” (Chugai Seiyaku Kabushiki Kaisha, priority 2005, dated 2012).

Data set [1] has as its system tube formation of human-derived vascular endothelial cells (HUVEC). Description: Tube formation inhibition test (angiogenesis assay kit, KURABO). The following applies: 264 h, final concentration 6.4 nM, 11 days, read-out: Tube formation inhibition ratio (%). In kind it is cell-based. The procedure:
The formed tubes were stained with a tube staining kit CD31 (KURABO). The stain image of each well was taken under a microscope, stored in an image file, and measured for the tube formation area using angiogenesis quantitative analysis software of KURABO. The inhibition ratio % of each test compound added to the well was calculated, provided that the ratio of the reference was 100%.

Data set [2] concerns the target T1, FLT3 intracellular domain protein (Homo sapiens, UniProt P36888).
T1 sequence (P36888 564-993 limits assumed): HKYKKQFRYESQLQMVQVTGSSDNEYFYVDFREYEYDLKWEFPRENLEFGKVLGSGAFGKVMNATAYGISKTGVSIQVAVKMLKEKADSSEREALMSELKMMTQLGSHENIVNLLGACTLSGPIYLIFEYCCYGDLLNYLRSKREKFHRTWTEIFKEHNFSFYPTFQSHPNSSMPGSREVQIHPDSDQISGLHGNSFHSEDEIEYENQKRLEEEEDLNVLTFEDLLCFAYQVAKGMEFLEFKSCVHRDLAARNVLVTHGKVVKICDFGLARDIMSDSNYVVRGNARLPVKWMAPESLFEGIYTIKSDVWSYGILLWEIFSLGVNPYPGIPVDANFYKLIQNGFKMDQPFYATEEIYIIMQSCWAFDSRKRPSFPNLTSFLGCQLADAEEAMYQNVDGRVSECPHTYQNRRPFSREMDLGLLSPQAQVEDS
Description: Flt3 enzyme inhibition test (HTRF). In kind it is biochemical. To be noted: phosphorylation of biotinylated peptide. The procedure: The FLT3 inhibitory activity was measured by the activity of FLT3 intracellular domain protein inhibiting for phosphorylation of a biotinylated peptide ([…]).

The subject of data set [3] is human umbilical vein endothelial cells (HUVEC), VEGF-dependent proliferation. Description: VEGF-dependent HUVEC proliferation inhibition assay. In kind it is cell-based. To be noted: read-out: 50% proliferation inhibitory concentration (IC50 value) HUVEC (VEGF-dependent), 20 ng/mL of VEGF, 72 hours, WST-1. The procedure:
(§1) The compounds according to the present invention were measured for cancer cell proliferation inhibitory activity and human umbilical vein endothelial cell (HUVEC) proliferation inhibitory activity.
(§2) Test compounds were serially diluted with dimethyl sulfoxide and then diluted 50 times with Ca^2+- and Mg^2+-free phosphate-buffered saline, and 20 μL of each of the resulting solution was dispensed into a 96-well plate. […] Each cell suspension contains approximately 3000 cells/180 μL. These cell suspensions were dispensed to the plate containing the test compounds at 180 μL/well and incubated in a 5% carbon dioxide gas incubator at 37° C. for 72 hours. 20 μL of WST-8 (HCT116, Dojin) or WST-1 (HUVEC, Roche Diagnostics) was added to each well, and absorbance at 450 nm (reference wavelength: 650 nm) was measured.
(Tetrazolium assays rely on reduction of a dye to a coloured formazan, in cell work by metabolically active cells.)

Data set [4] has as its system human colon cancer cell line HCT116 cells. Description: Cell proliferation inhibitory activity, HCT116. In kind it is cell-based. The following applies: Homo sapiens, HCT-116, read-out: 50% proliferation inhibitory concentration (IC50 value) HCT116; HCT116, 72 hours, WST-8. The procedure:
as §1, §2

Data set [5] shares this test system. Description: Antitumor test, HCT116 transplanted subcutaneously in nude mice. In kind it is in vivo, female Balb/c nude mouse. To be noted: once a day for 12 days; for Tumor growth inhibition ratio (%): last administration day; for Decrease ratio in body weight (%): maximum decrease. The procedure: A cell suspension of human colon cancer cell line HCT116 cells was prepared using Hanks's solution, and 5.0×10^6 cells thereof were transplanted subcutaneously into the flank of each female Balb/c nude mouse. Oral administration of the test compound (once a day for 12 days) was started when the transplanted tumor volume reached 200 to 250 mm^3. The tumor volume was calculated by the expression: 0.5×(minor axis)^2×(major axis). The tumor growth inhibition ratio of tumor growth of the test compound to tumor growth of the reference group was determined.

The nature of data set [6]: Solubility in fasted state simulated intestinal fluid. In kind it is physicochemical. To be noted: pH 6.5, fassif, kinetic from dmso stock, fasted state simulated intestinal fluid (pH6.5), 37° C. The procedure: 2 μL of each dimethyl sulfoxide solutions containing test compounds were dispensed into wells of a 96-well plate, and 200 μL of fasted state simulated intestinal fluid (pH6.5) was added to each well. The plate was shaken at 37° C. for 20 hours. The solution was filtered through a membrane filter, and 101 μL of the filtrate was transferred to a UV plate, followed by addition of 100 μL of a solution mixture of ethanol:water=2:1 thereto. Separately, as a standard, 101 μL of a solution prepared by 2 μL of a dimethyl sulfoxide solution, 4 μL of dimethyl sulfoxide, 400 μL of ethanol, and 200 μL of water was transferred to a UV plate, and 100 μL of fasted state simulated intestinal fluid (pH6.5) was added thereto. The solubility was calculated by the following expression: Solubility=[(absorbance of test solution)−blank]/[(absorbance of standard solution)−blank]×165 μM (165 μM is the concentration of the standard solution) Composition of the fasted state simulated intestinal fluid (pH6.5)
The composition was prepared in compliance with the description in E. Galia, et al., Pharm. Res. 1998, 698.
Taurocholic acid (161 mg), L-α-phosphatidylcholine (59 mg), potassium dihydrogen phosphate (0.39 g), and potassium chloride (0.77 g) were added to about 90 mL of water. The resulting solution was adjusted to a pH of 6.5 with a sodium hydroxide aqueous solution and then diluted to a volume of 100 mL with water. The solution was filtered through a membrane filter.

The test system of data set [7] is human umbilical vein endothelial cells (HUVEC), VEGF-independent proliferation. Description: VEGF-independent HUVEC proliferation inhibition assay. In kind it is cell-based. To be noted: read-out: 50% proliferation inhibitory concentration (IC50 value) HUVEC (VEGF-independent), vascular endothelial cell growth-promoting agent and heparin, 72 hours, WST-1. Here is the method: as §1, §2

Data set [8] relates to choroidal neovascularization. Description: Laser coagulation-induced murine choroidal neovascularization model. It is filed as in vivo, C57BL6J mice. The following applies: for Average FA score: once a day for three days. Here is the method:
Laser coagulation was performed on two- to three-month-old C57BL6J mice (ten mice per group) by using a 408 nm semiconductor laser (DC-3000, Nidek). Both eyes were each irradiated at three positions with a spot size of 170 μm, an exposure time of 0.02 sec, and an output of 200 mW. The drug was orally administered once a day for three days beginning on the day of the laser coagulation. On the next day of the last administration, the mice were intravenously injected with 7 mg/kg of fluorescein. Five minutes after the injection, three fluorescent fundus images of each eye were taken (TRC-501X, Topcon) and stored in a CCD camera having 640×480 pixels as an image file. The total pixel brightness (0 to 1) in regions where fluorescein leakage was detected was used as an index (FA score) of choroidal neovascularization activity. The FA score was calculated by defining reference values such that the pixel brightness in a capillary region of a non-coagulated site is 0 and the pixel brightness on a main branch of the retinal blood vessel is 1.

Data set [9] addresses KDR intracellular domain protein (Homo sapiens, UniProt P35968). Description: KDR enzyme inhibition assay (biotinylated peptide phosphorylation, HTRF). In kind it is biochemical. The following applies: phosphorylation of biotinylated peptide. The procedure: (§3) The compounds according to the present invention were measured for Raf-1 and KDR enzyme inhibitory activities.
(§4) The Raf-1 inhibitory activity was measured by the activity of Raf-1 protein for inhibiting phosphorylation of MEK-1 protein having six histidine residues (His6) fused to the N-terminus thereof. […] The KDR inhibitory activity was measured by the activity of KDR intracellular domain protein for inhibiting phosphorylation of a biotinylated peptide ([…]).
For orientation: In TR-FRET formats the signal depends on donor and acceptor labels being close together.

The next data set deals with Raf-1 (Homo sapiens, UniProt P04049). Description: Raf-1 enzyme inhibition assay (MEK-1 phosphorylation, HTRF). It is filed as biochemical. To be noted: phosphorylation of His6-MEK-1. Here is the method:
as §3, §4

In brackets after ≈: the same amount, converted by molar mass.

Sequence of Raf-1 (P04049 whole entry): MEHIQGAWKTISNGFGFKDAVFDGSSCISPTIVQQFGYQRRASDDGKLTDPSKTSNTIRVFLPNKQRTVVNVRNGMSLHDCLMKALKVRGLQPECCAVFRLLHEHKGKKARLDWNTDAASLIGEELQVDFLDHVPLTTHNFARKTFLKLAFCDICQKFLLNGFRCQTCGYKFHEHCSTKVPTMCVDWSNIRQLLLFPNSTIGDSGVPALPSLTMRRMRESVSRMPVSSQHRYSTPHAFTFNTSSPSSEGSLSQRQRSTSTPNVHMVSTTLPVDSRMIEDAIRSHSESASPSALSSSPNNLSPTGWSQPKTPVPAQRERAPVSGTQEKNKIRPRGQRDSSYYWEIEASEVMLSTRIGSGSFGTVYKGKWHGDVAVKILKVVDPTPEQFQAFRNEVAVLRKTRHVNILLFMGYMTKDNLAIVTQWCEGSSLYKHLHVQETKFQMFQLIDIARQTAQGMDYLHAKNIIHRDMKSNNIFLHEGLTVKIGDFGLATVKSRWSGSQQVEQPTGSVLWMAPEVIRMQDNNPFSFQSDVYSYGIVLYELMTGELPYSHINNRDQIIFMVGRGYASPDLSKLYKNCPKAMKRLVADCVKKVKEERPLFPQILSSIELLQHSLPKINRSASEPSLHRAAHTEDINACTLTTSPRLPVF
Sequence of KDR intracellular domain protein (P35968 786-1356 limits assumed): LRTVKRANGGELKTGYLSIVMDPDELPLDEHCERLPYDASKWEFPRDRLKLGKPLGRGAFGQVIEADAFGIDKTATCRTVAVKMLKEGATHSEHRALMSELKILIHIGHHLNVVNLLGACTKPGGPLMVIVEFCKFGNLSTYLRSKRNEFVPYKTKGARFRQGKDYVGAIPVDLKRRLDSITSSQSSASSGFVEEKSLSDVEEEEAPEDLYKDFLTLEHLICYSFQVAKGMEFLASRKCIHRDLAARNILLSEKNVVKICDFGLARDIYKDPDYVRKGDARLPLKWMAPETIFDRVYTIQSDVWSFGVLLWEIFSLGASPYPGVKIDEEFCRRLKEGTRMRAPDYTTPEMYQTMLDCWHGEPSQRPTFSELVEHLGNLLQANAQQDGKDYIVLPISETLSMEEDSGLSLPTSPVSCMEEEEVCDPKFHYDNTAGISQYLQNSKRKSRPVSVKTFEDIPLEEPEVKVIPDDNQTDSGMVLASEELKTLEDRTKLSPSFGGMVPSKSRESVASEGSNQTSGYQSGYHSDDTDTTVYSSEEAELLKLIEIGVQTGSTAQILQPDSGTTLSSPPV

For `COCCOc1ccc(NC(=O)Nc2ccc(Oc3ccnc4[nH]ncc34)cc2)cc1C(F)(F)F` [Compound 2, 1-[4-(2-Methoxyethoxy)-3-(trifluoromethyl)phenyl]-3-[4-(1H-pyrazolo[3,4-b]pyridin-4-yloxy)phenyl]urea], in data set [1], the inhibition at 0.0064 µM worked out at 82%.
The solubility is how much of the substance goes into solution per volume. A high value points to a readily soluble substance. Regarding `O=C(Nc1ccc(Oc2ccnc3[nH]ccc23)cc1)Nc1ccc(CCCF)c(C(F)(F)F)c1` [Compound 11, 1-[4-(3-Fluoropropyl)-3-(trifluoromethyl)phenyl]-3-[4-(1H-pyrrolo[2,3-b]pyridin-4-yloxy)phenyl]urea], the IC50 in data set [2] was 9.7 nM; in data set [3], 5.8 nM; in [4], 1600 nM; in [7], 650 nM. Further, the “Tumor growth inhibition ratio (%)” value in data set [5] (100 mg/kg oral) is recorded as 89%. Moreover, the “Decrease ratio in body weight (%)” value in data set [5] (100 mg/kg oral) is given as 7.8%. The compound further registered a solubility at 20 h in data set [6] of 14 µg/mL (≈ 29.6 µM). In addition, in data set [1], the inhibition at 0.0064 µM was found to be 82%.
`O=C(Nc1ccc(Oc2ccnc3[nH]ccc23)cc1)Nc1ccc(Oc2ccc(F)cc2)c(C(F)(F)F)c1` [Compound 58, 1-[4-(4-Fluorophenoxy)-3-(trifluoromethyl)phenyl]-3-[4-(1H-pyrrolo[2,3-b]pyridin-4-yloxy)phenyl]urea]: the “inhibition of the angiogenesis (in words)” value in data set [8] (50 mg/kg) is given as “significantly inhibited”. Besides, the “Average FA score” value is listed as 7.127 in data set [8] (50 mg/kg oral) and 6.664 in data set [8] (100 mg/kg oral).
As for `O=C(Nc1ccc(Oc2ccnc3[nH]ccc23)cc1)Nc1ccc(CCF)c(C(F)(F)F)c1` [Compound 21, 1-[4-(2-Fluoroethyl)-3-(trifluoromethyl)phenyl]-3-[4-(1H-pyrrolo[2,3-b]pyridin-4-yloxy)phenyl]urea], the IC50 in data set [3] was 4.4 nM; in [4], 1300 nM; in data set [7], 860 nM. Besides, the inhibition at 0.0064 µM in data set [1] is 100%.
As to `O=C(Nc1ccc(Oc2ccnc3[nH]ccc23)cc1)Nc1cc(CCF)cc(C(F)(F)F)c1` [Compound 22, 1-[3-(2-Fluoroethyl)-5-(trifluoromethyl)phenyl]-3-[4-(1H-pyrrolo[2,3-b]pyridin-4-yloxy)phenyl]urea], the IC50 in data set [2] was 14 nM; in [3], 5.4 nM; in data set [4], 1300 nM; in data set [9], 3.6 nM; on Raf-1 it was 23 nM; in [7], 630 nM. The solubility at 20 h in data set [6] is 16 µg/mL (≈ 34.9 µM). For the same compound, the inhibition at 0.0064 µM in data set [1] was found to be 96%.
`O=C(Nc1ccc(Oc2ccnc3[nH]ccc23)cc1)Nc1ccc(CF)c(C(F)(F)F)c1` [Compound 51, 1-(4-fluoromethyl-3-trifluoromethyl-phenyl)-3-[4-(1H-pyrrolo[2,3-b]pyridin-4-yloxy)phenyl]urea]: the IC50 in [2] turned out to be 16 nM; in data set [3], 4 nM; in data set [4], 1000 nM; in data set [9], 0.35 nM; against Raf-1 it was 35 nM; in data set [7], 800 nM. For the same compound, the concentration in solution in [6] (solubility at 20 h) was 15 µg/mL (≈ 33.8 µM).
In the case of `O=C(Nc1ccc(Oc2ccnc3[nH]ccc23)cc1)Nc1ccc(OC2CCOCC2)c(C(F)(F)F)c1` [Compound 7, 1-[4-(1H-Pyrrolo[2,3-b]pyridin-4-yloxy)phenyl]-3-[4-(tetrahydropyran-4-yloxy)-3-(trifluoromethyl)phenyl]urea], the IC50 in [2] was 6.9 nM; in data set [3], 3.9 nM; in [4], 3200 nM; in data set [7], 860 nM. For the same compound, in data set [5] (200 mg/kg oral), the “Tumor growth inhibition ratio (%)” value was 97%. In data set [5] (200 mg/kg oral), the “Decrease ratio in body weight (%)” value is 3.6%. In addition, the inhibition at 0.0064 µM in data set [1] was found to be 99%.
For `O=C(Nc1ccc(Oc2ccnc3[nH]ncc23)cc1)Nc1ccc(CCCF)c(C(F)(F)F)c1` [Compound 19, 1-[4-(3-Fluoro-propyl)-3-(trifluoromethyl)phenyl]-3-[4-(1H-pyrazolo[3,4-b]pyridin-4-yloxy)phenyl]urea], the IC50 in data set [2] worked out at 18 nM; in data set [3] it was 1.8 nM; in data set [4], 2400 nM; in [7], 300 nM. In addition, the “Tumor growth inhibition ratio (%)” value in data set [5] (100 mg/kg oral) was 89%. Besides, the “Decrease ratio in body weight (%)” value in data set [5] (100 mg/kg oral) is on record as 4.9%. Further, in data set [6], the concentration in solution (solubility at 20 h) came to 16 µg/mL (≈ 33.8 µM). For the same compound, the inhibition at 0.0064 µM in data set [1] was determined as 98%.
For the compound `COCCOc1ccc(NC(=O)Nc2ccc(Oc3ccnc4[nH]ccc34)cc2)cc1C(F)(F)F` [Compound 1, 1-[4-(2-methoxyethoxy)-3-(trifluoromethyl)phenyl]-3-[4-(1H-pyrrolo[2,3-b]pyridin-4-yloxy)phenyl]urea], the IC50 in [2] is 3.2 nM; in data set [3], 3.7 nM; in data set [4], 2100 nM; in [7], 2600 nM. The inhibition at 0.0064 µM in data set [1] was 98%.
The corresponding values for `O=C(Nc1ccc(Oc2ccnc3[nH]ccc23)cc1)Nc1ccc(OCCF)c(C(F)(F)F)c1` [Compound 15, 1-[4-(2-Fluoroethoxy)-3-(trifluoromethyl)phenyl]-3-[4-(1H-pyrrolo[2,3-b]pyridin-4-yloxy)phenyl]urea] are 11 nM, 4 nM, 2300 nM, 1200 nM and 100%.
